From BindingDB's records for patent US20250250264 (Wuhan Humanwell Innovative Drug Research And Development …, 2025) come the findings set out here.

This assay has as its target T1, Kinesin-like protein KIF18A [1-467] (Human, UniProt Q8NI77).
T1 construct: 1-467
T1 sequence (Q8NI77 whole entry): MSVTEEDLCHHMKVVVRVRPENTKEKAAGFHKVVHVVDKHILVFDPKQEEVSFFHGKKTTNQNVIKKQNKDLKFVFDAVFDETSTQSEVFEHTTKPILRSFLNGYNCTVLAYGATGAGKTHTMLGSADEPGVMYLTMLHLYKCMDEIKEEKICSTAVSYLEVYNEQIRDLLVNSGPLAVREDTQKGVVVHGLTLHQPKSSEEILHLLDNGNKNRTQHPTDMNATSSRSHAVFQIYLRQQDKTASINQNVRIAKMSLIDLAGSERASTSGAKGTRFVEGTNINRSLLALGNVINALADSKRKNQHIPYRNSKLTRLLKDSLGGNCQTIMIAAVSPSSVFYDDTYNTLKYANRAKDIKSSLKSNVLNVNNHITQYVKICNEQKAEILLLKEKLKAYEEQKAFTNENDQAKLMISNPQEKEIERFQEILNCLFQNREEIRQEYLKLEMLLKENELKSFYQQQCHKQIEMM
As to the kind of experiment: Assay on Inhibition of KIF18A Enzymatic Activity. On the procedure: The reaction system consisted of a test compound, the recombinant protein KIF18A (aa 1-467), ATP (Promega Inc), and an assay buffer. The test compound was prepared into a 0.5 mM stock solution using DMSO (Sigma Inc) and then serially diluted in DMSO. The assay buffer consisted of an aqueous solution of 15 mM Tris, 10 mM MgCl2 (Sigma Inc), 0.01% Pluronic F-68 (Life Technologies Inc), 1 μM paclitaxel (Cytoskeleton Inc), 30 μg/mL porcine tubulin (Cytoskeleton Inc), and 2% DMSO. The KIF18A protein (final concentration: 80 nM) and the compound at different concentrations (1 μL) were added to the prepared assay buffer (50 μL), and the mixture was incubated at room temperature for 15 min. Then, ATP (final concentration: 80 μM) was added to the reaction mixture, and the resulting mixture was incubated at room temperature for 3 h. After the reaction was completed, 5 μL of the ADP-Glo™ reagent and 2.5 μL of the reaction mixture were added to a 384-well plate (Grenier Inc). The resulting mixture was mixed homogeneously, then sealed by an aluminum foil sealing film, and incubated at room temperature in the dark for 40 min. […] After all reactions were completed, the luminescence values of the wells were read on a microplate reader (Molecular Device_SpectraMax Id5), and the inhibition ratios were calculated.

`Cc1cc(-c2nnc(-c3ccc(NS(=O)(=O)CCO)cc3N3CCC4(CC3)CC4)o2)c(F)c(N2CCC(F)(F)CC2)n1` [US20250250264, Compound I-53] returned an IC50 of 25 nM. The same measure for `Cc1cc(-c2nnc(-c3ccc(NS(=O)(=O)CCO)cc3N3CCC4(CC3)CC4)s2)nc(OCCC(F)(F)F)n1` [US20250250264, Compound I-99]: 3 nM.

Usually IC50 stands for the concentration that inhibits the measured activity by half. A high value points to a need for much substance.
